The source of these data is patent US20200003760A1, “IN-VITRO METHODS FOR CLASSIFYING DRUGS ACCORDING TO THEIR POTENTIAL TO CAUSE LIVER CELL INJURY” (Board of Trustees of Michigan State University, priority 2018, published 2020).

Where two headings read alike, the source gives them in different places.

One data set has as its system HepG2 cells. The experiment in a line: Drug/cytokine-induced cytotoxicity (% LDH release) concentration-response in HepG2 cells. Type of data set: cell-based, human. The arrangement: key to Deltadiff: LDH release percentage points (drug/TNF Delta minus drug/VEH Delta). The note with it: for R10 IFN: with IFN; for R10 TNF: with TNF; for R10 TNF/IFN / EC10 TNF/IFN: with TNF and IFN; for Deltadiff: Delta of drug/TNF curve minus Delta of drug/VEH curve (LDH percentage); for EC10: value corresponding to 10% of Delta (max-min); for EC10 / EC10 IFN / EC10 TNF / EC10 TNF/IFN: NA = no significant increase; for EC10 IFN / EC10 TNF / EC10 TNF/IFN: value corresponding to 10% of Delta; for EC10 IFN: with IFN 10 ng/ml; for EC10 TNF: with TNF 10 ng/ml; for TNF change: D10TNF − D10VEH; for cytotoxic interaction of drug with TNF: TNF 10 ng/ml; for cytotoxicity of drug on its own (LDH release): absence of cytokines. On the procedure: Cells were passed or used for experiments when they reached approximately 80% confluence. Cells were used at passage 6-16.
HepG2 cells were plated at a density of 4×10^4 cells per well in black-walled, 96-well, tissue culture plates and were allowed to attach overnight before being treated with compounds. Drugs were reconstituted in vehicles consisting of sterile water or DMSO (concentration less than 0.5%). Cells were treated with various concentrations of the drug or its vehicle (control) alone or in combination with the cytokines TNF (10 ng/ml) and/or IFN (10 ng/ml) or their PBS vehicle (VEH). Cytotoxicity was evaluated as lactate dehydrogenase (LDH) activity released from the cells into culture medium using the Homogeneous Membrane Integrity Assay kit from Promega (Madison, Wis.).
Concentration-response curves were generated for 24 drugs, 14 of which are associated with human IDILI and 10 of which are not. […] This was necessary because four-parameter logistic modeling used in the statistical analysis requires well defined, sigmoidal concentration-response curves. Cells were exposed to drug/cytokine combinations for 24 hours. For analysis of drug concentration-response data, concentrations of each drug were expressed as a fraction of its Cmax.
Defining covariates: four-parameter logistic model. In the first phase, variables (potential covariates) for use in the classification analysis were defined from the analysis of drug concentration-response data. Initially, a one-way analysis of variance (ANOVA) was used as an omnibus test to determine if a particular treatment (e.g. drug alone or in combination with TNF and/or IFN) caused a significant change in LDH release relative to baseline (i.e., LDH release in the absence of drug, hereafter designated “min”). The criterion for significance for the ANOVA was set at α=0.01. A 1% level of significance was used to rule out more vigorously marginal relationships between concentration and response.
where LDH(x) is the percentage of LDH released at a given concentration x; x=[drug]/Cmax; min=the % LDH release at 0 drug concentration (i.e., baseline); and max=the maximal LDH response (i.e., maximum % LDH release).
where D10 is a categorical variable related to reaching a threshold LDH response above which a drug is classified as positively associated with IDILI. D10 is defined as 0 if Delta<10% LDH release and as 1 if Delta≥10% LDH release.
The base covariate R10 represents the [drug]/Cmax value associated with an increase in 10 LDH percentage points above min for a particular treatment condition and was determined by the equation:
R10 was considered to be 0 when the Delta<10% LDH (i.e. when D10=0).
EC50 quotient, EC10 quotient and R10 quotient represent the ratio between the EC50, EC10 or R10 of the drug/cytokine concentration-response curve and the respective value for the drug/VEH concentration-response curve. In some instances, the value derived from this calculation is indeterminate (i.e. when the denominator=0). In order to incorporate the quotient values into the classification models described below, the categorical variable “Q” was used to eliminate the possibility of the quotient being indeterminate. Q is defined as 0 if Delta VEH and/or Delta cytokine is <10% LDH and 1 if both Delta VEH and Delta cytokine are ≥10% LDH. […] The same condition was applied for calculation of EC10 quotient and R10 quotient.
Deltadiff represents the difference between the Delta of the drug/cytokine concentration-response curve and the Delta of the drug/VEH curve. In other words, Deltadiff=(Delta cytokine)−(Delta VEH). FIG. 1 graphically illustrates several of the covariates defined above. […] In addition to the covariates derived from the concentration-response curves, the maximal therapeutic plasma drug concentration (Cmax) in human patients was used in some models (Table 1).

Data set [1] in a line: Logistic regression classification model: probability that a drug is associated with IDILI. The following applies: for Estimated probability: probability that drug is associated with IDILI, covariates Deltadiff, EC50 VEH, EC50 TNF, Delta VEH, Cmax, optimal cutoff 0.46. On the set-up: species or system human. From the text:
Classification modeling using defined covariates. In the second phase of analysis, classification models were developed using logistic regression with covariates as independent variables in the analysis and known IDILI classification as the dependent variable. A model selection process was used to determine if a covariate or set of covariates is associated with IDILI liability. Covariates were first evaluated individually to determine how well a particular covariate classified drugs according to IDILI liability, and then covariates were evaluated in combination. Combinations of covariates were selected to maximize the ability of the model to distinguish between drugs associated or not with IDILI. Specifically, covariates that describe changes in efficacy (Delta, Deltadiff, etc.) were paired with covariates that describe changes in potency (EC50, EC10, R10, etc.) to find covariate combinations that led to models that most accurately discriminated between drugs that are and are not associated with IDILI. […] The logistic regression models follow the equation: […]
where ŷi is the calculated (predicted) probability that drug i with a vector of covariates xi is associated with IDILI. The β coefficients (β0, the regression intercept; and βi, the regression slopes for model covariates, xi) were derived from the logistic regression models using 1) combinations of the covariates (xi) generated by concentration-response modeling for each of the 24 drugs evaluated in this study, and 2) the true IDILI classification for the dependent variable yi (i.e., 1 for IDILI+drugs and 0 for IDILI-drugs). […] This occurs when a covariate almost perfectly separates observations into the appropriate categories. […] When separation or quasi-complete separation occurs, use of the standard method (i.e., maximum likelihood estimation) provides biased, unreliable estimates of βi.
Receiver operating characteristic (ROC) analysis. In the third phase of the statistical approach, the classification models, generated as logistic regression models using single covariates or combinations of covariates, were evaluated by ROC analysis to determine which model and corresponding sets of covariates led to the most accurate classification of drugs according to their potential to cause IDILI. An ROC curve was created for each model by graphing the true positive rate (sensitivity; i.e., proportion of drugs correctly classified as associated with IDILI) against the false positive rate (1-specificity; i.e., proportion of drugs incorrectly classified as associated with IDILI) at various probability cutoff thresholds (k). […] An area under the curve (AUC) and confidence interval was computed for each ROC curve (where each logistic regression model has one ROC curve). […] Corresponding to each ROC curve is an optimal threshold value (k*), the threshold yielding the highest point of accuracy on the curve (i.e., the point nearest the point […] on the curve). Thus, each ROC curve has a corresponding AUC and an optimal cutoff (k*) that corresponds to the highest point of accuracy on that ROC curve.

The conditions of data set [2]: cited from earlier work; for True classification: IDILI in human patients; for IDILI liability: criteria of Xu et al. (2008).
For data set [3] the following is noted: cited from earlier work.
Setting [4] is: 10 percent increase in LDH response above min, 0 when D10 = 0, drug alone (VEH).
The mark [5] stands for this setting: 10 percent increase in LDH response above min, 0 when D10 = 0.
[6] abbreviates: Homo sapiens, HepG2, categorical, Delta threshold 10 LDH percentage points, drug alone (VEH), read-out: D10.
Where [7] appears, read: Homo sapiens, HepG2, maximal LDH response, drug alone (VEH), 24 h, read-out: max.
Where [8] appears, read: maximal plasma concentration after pharmacologic dosing in human patients.

Turning to `COc1ccc2cc([C@H](C)C(=O)O)ccc2c1` [Naproxen], the R10 in the data set with HepG2 cells (setting [4]) was 60.5 [drug]/Cmax. In the data set on HepG2 cells (setting [5]), the “R10 IFN” value was 65.9 [drug]/Cmax, the “R10 TNF” value was 24.3 [drug]/Cmax and the “R10 TNF/IFN” value was 18.4 [drug]/Cmax. Further, in the data set with HepG2 cells, the Deltadiff is −9.3, the “EC10 IFN” value is 64.8 [drug]/Cmax, the “EC10 TNF” value was 23.6 [drug]/Cmax and the “EC10 TNF/IFN” value is 17.3 [drug]/Cmax. Moreover, the Emax in the data set on HepG2 cells (setting [6]) is over 10%. The Emax with HepG2 cells (setting [7]) came to 102%. In addition, the EC10 in the data set on HepG2 cells (drug alone (VEH)) is 59.8 [drug]/Cmax. Moreover, in data set [1], the Estimated probability is recorded as 0.8589. For the same compound, the True classification result in data set [2] is “IDILI+”.
Take `CS(=O)(=O)c1ccc(C2=C(c3ccccc3)C(=O)OC2)cc1` [Rofecoxib]: in the data set with HepG2 cells (setting [4]), the R10 is 0 [drug]/Cmax. For the same compound, in the data set on HepG2 cells (setting [5]), the “R10 IFN” value was 0 [drug]/Cmax, the “R10 TNF” value was 0 [drug]/Cmax and the “R10 TNF/IFN” value was 0 [drug]/Cmax. Further, the Deltadiff in the data set with HepG2 cells is 0. Besides, the Emax in the data set on HepG2 cells (setting [6]) is under 10%. Besides, the Emax in the data set on HepG2 cells (setting [7]) came out at 12.2%. The TNF change in the data set on HepG2 cells (categorical) came out at 0. The Estimated probability in data set [1] is 0.1278. Further, the Cmax in data set [3] (setting [8]) is 1 µM. In addition, in data set [2], the True classification entry is “IDILI−” and the IDILI liability result was “IDILI−”.
On to `Nc1c(CC(=O)O)cccc1C(=O)c1ccc(Br)cc1` [Bromfenac], for which the R10 in the data set with HepG2 cells (setting [4]) is 0 [drug]/Cmax. Besides, in the data set with HepG2 cells (setting [5]), the “R10 IFN” value is 0 [drug]/Cmax, the “R10 TNF” value was 40.6 [drug]/Cmax and the “R10 TNF/IFN” value is 28.9 [drug]/Cmax. Besides, in the data set on HepG2 cells, the Deltadiff turned out to be 22.6, the “EC10 TNF” value is 22.6 [drug]/Cmax and the “EC10 TNF/IFN” value was 18.9 [drug]/Cmax. Also, in the data set on HepG2 cells (HepG2, 24 h), the “cytotoxic interaction of drug with TNF” value is given as “synergized with TNF to cause cytotoxicity” and the “cytotoxicity of drug on its own (LDH release)” value (“cytotoxicity of drug on its own” below) is reported as “caused no cytotoxicity on their own”. Further, the “effect of IFN coexposure on the drug/TNF cytotoxic interaction” value with HepG2 cells (HepG2, 24 h, TNF and IFN 10 ng/ml each) was “coexposure to IFN enhanced the cytotoxic interaction”. Also, the Emax in the data set on HepG2 cells (setting [6]) was under 10%. The Emax in the data set with HepG2 cells (setting [7]) came to 13.8%. Moreover, in the data set on HepG2 cells (categorical), the TNF change is 1. Further, in data set [1], the Estimated probability was 0.9397. The Cmax in data set [3] (setting [8]) was 13.5 µM. In addition, in data set [2], the True classification result was “IDILI+” and the IDILI liability entry was “IDILI+”.
As to `CC(C)(O)C(=O)Nc1ccc([N+](=O)[O-])c(C(F)(F)F)c1` [2-hydroxyflutamide], in data set [1] (best-performing classification model), the “calculated probability for association with IDILI” value is 0.999. In addition, the Cmax in data set [3] (metabolite of flutamide in vivo) was 5.74 µM.
For `CS(=O)(=O)Nc1ccc([N+](=O)[O-])cc1Oc1ccccc1` [Nimesulide], in the data set on HepG2 cells, the R10 was 0 [drug]/Cmax, the Deltadiff is 92.3, the “EC10 TNF” value is 31.8 [drug]/Cmax and the “EC10 TNF/IFN” value was 33.2 [drug]/Cmax. Moreover, in the data set on HepG2 cells (setting [5]), the “R10 IFN” value was 0 [drug]/Cmax, the “R10 TNF” value was 32.0 [drug]/Cmax and the “R10 TNF/IFN” value was 33.5 [drug]/Cmax. In the data set on HepG2 cells (HepG2, 24 h), the “cytotoxic interaction of drug with TNF” value is on record as “synergized with TNF to cause cytotoxicity” and the “cytotoxicity of drug on its own” value is given as “caused no cytotoxicity on their own”. Besides, in the data set on HepG2 cells (Homo sapiens, HepG2, read-out: D10), the Emax was under 10%. Further, the Emax in the data set with HepG2 cells (setting [7]) was 14.6%. Also, in the data set on HepG2 cells (categorical), the TNF change is 1. Besides, the Estimated probability in data set [1] is on record as 1. Further, the Cmax in data set [3] (setting [8]) was 21.1 µM.
For `CCc1ccc(CCOc2ccc(CC3SC(=O)NC3=O)cc2)nc1` (stereo not drawn) [Pioglitazone], in the data set with HepG2 cells (setting [4]), the R10 is 80.1 [drug]/Cmax. In the data set with HepG2 cells (setting [5]), the “R10 IFN” value was 84.6 [drug]/Cmax, the “R10 TNF” value was 84.5 [drug]/Cmax and the “R10 TNF/IFN” value is 87.3 [drug]/Cmax. In the data set on HepG2 cells, the Deltadiff came out at 0.8, the “EC10 IFN” value was 74.2 [drug]/Cmax, the “EC10 TNF” value is 72.8 [drug]/Cmax and the “EC10 TNF/IFN” value was 81.8 [drug]/Cmax. In the data set on HepG2 cells (HepG2, 24 h, TNF and/or IFN), the “synergy with cytokines to kill HepG2 cells” value is “not enhanced by the addition of cytokines”. Besides, the “cytotoxicity of drug on its own” value with HepG2 cells (HepG2, 24 h) was “caused cytotoxicity on its own”. Also, the D10 (LDH rise of at least 10 points, yes/no) in the data set on HepG2 cells (Homo sapiens, HepG2, categorical, Delta threshold 10 LDH percentage points, drug alone (VEH)) is over 10%. Moreover, the Emax in the data set on HepG2 cells (setting [7]) is 44.1%. The TNF change with HepG2 cells (categorical) was 0. Further, the EC10 in the data set on HepG2 cells (drug alone (VEH)) is 71.4 [drug]/Cmax. For the same compound, the Cmax in data set [3] (setting [8]) is 2.67 µM. Further, in data set [2], the True classification result is listed as “IDILI−” and the IDILI liability entry is recorded as “IDILI−”.

What is called Cmax is the highest concentration seen after dosing.
